Assays:
α-thrombin = α-thrombin (Homo sapiens, UniProt P00734); assay: Amidolytic thrombin assay (inhibition constant Ki); format: biochemical
Procedure: The ability of the compounds of the present invention to act as inhibitors of thrombin catalytic activity in comparison to Hirulog-1 (compound 25) was assessed by determining their inhibition constant, Ki.
Enzyme activity was determined using the chromogenic substrate Pefachrome t-PA (CH3 SO2 -D-hexahydrotyrosine-glycyl-L-arginine-p-nitroaniline, obtained from Pentapharm Ltd.). The substrate was reconstituted in deionized water prior to use.
Ki values were determined for test compounds using the following methodologies:
The assay was conducted by combining in appropriate wells of a Corning microtiter plate, 50 μL of HBSA, 50 μL of the test compound at a specified concentration diluted in HBSA (or HBSA alone for Vo(uninhibited velocity) measurement), and 50 μL of the chromogenic substrate diluted in HBSA. At time zero, 50 μL of α-thrombin diluted in HBSA, was added to the wells yielding a final concentration of 0.25 nM in a total volume of 200 μL. Velocities of Pefachrome-tPA substrate hydrolysis which occurred over a 40 minute time period was measured by the change in absorbance at 405 nm using a Thermo Max® Kinetic Microplate Reader. […] The linear relationship between kobs and inhibitor concentration is indicative of a competitive, one step mechanism and was used to calculate kon and koff which yielded a value for Ki after taking into consideration the concentration and Km (38.5 μM) of the substrate in the assay.
The initial velocity of Pefachrome t-PA hydrolysis was measured by the change in absorbance at 405 nm using a Thermo Max® Kinetic Microplate Reader over a 2 minute period in which less than 5% of the added substrate was utilized. The relationship between the ratio of the inhibited steady-state velocity (Vs) and the uninhibited velocity (Vo) to the concentration of inhibitor [It ], was analyzed using Equation 1 developed by Morrison , J. F., Biochim. Biophys. Acta, 185:269 (1969) for inhibitors which deplete a significant amount of the total enzyme (Et) over the course of the assay (designated tight binding inhibitors):
Vs/Vo={([Et ]-[It ]-Ki*)+[([It ]+Ki*-[Et ])^2
Ki* was determined by fitting Vs/Vo verses [I] using Equation 1 by non-linear regression analysis.
The best fit of the data for both compounds was to the equation describing competitive inhibition.

Rat Venous Stasis Model = assay: Venous stasis in rats (thromboplastin plus stasis, inferior vena cava); format: in vivo; details: for % Clot: mean ± S.E.M.
Procedure: This is one of the most commonly used models in the evaluation of antithrombotic compounds. Hladovec, J. Thromb. […] Talbot, M. D., et. al., Thromb.
Male Harlan Sprague Dawley rats (420-450 g) were acclimated at least 72 hours prior to use. The animals were fasted for 12 hours prior to surgery with free access to water. The animals were anesthetized with a sodium pentobarbital (Nembutal) given intraperitoneally at a dose of 50 mg/kg body weight and placed on a isothermal pad to maintain body temperature. The level of anesthesia was monitored every 15 minutes by: neuro-response to a tail pinch, respiration and body core temperature. The desired depth of surgical anesthesia was maintained by administering subsequent doses (5 mg/kg) intravenously. The left femoral artery was catheterized with polyethylene tubing (PE50) using standard procedures for blood pressure monitoring and blood sampling. The left and right femoral veins were catheterized with PE50 tubing for delivery of anesthetic and test compounds respectively.
Blood pressure, heart rate, core temperature and respiration were monitored continuously.
The abdomen of the animals is opened by making a vertical midline incision followed by isolation of the IVC using dissection. The segment extends from below the renal to above the iliac vessels (about 2 cm in length). The peripheral blood vessels are tied off and a ligature is loosely placed at the distal and proximal ends of the isolated segment. Rabbit brain thromboplastin (RBT) (Sigma Chemical Co., St. Louis MO) is prepared by resuspending the contents of the vial with 2 mL of sterile saline pre-warmed to 37° C. At the end of the 30 minute infusion period, RBT is systemically administered as a bolus injection (1.5 mL/kg) via the femoral catheter. Stasis is induced within the isolated IVC segment by securing the proximal and distal ligature 10 sec following the administration of the RBT. Following a 30 minute period of stasis the tied off IVC segment is removed and the contents weighed. Clot formation was defined as %clot: [Weight of the isolated clot/(Weight of the intact segment-the weight of the empty segment)]×100. This method was used to correct for slight differences in segment size and fluid content.
Following termination of the experiment the animal was euthanized with a 120 mg/kg dose of Nembutal.

(D--Phe)--Pro--Arg--Pro--(Gly4 --Asn--Gly--Asp--Phe--Glu--Glu--IIe--Pro--Glu--Glu--Tyr--Leu--OH [Compound 25]
Ki (α-thrombin; chromogenic substrate Pefachrome t-PA, HBSA pH 7.5, slow-binding (kon/koff) or Dixon analysis): 0.437 nM
kinetics / mechanism of thrombin inhibition (α-thrombin; in words): rapid, reversible kinetics of inhibition
% Clot (Rat Venous Stasis Model; 0.1 mg/kg i.v. bolus + 40 μg/kg/min i.v. infusion): 25.75 ± 3.71%
% Clot (Rat Venous Stasis Model; 0.1 mg/kg i.v. bolus + 60 μg/kg/min i.v. infusion): 26.50 ± 3.59%
% Clot (Rat Venous Stasis Model; 0.1 mg/kg i.v. bolus + 80 μg/kg/min i.v. infusion): 25.75 ± 0.41%
effect on venous thrombus formation induced by stasis and thromboplastin (Rat Venous Stasis Model; summary in words): did not have any effect of thrombus formation
